Structures can show the parent of a compound that is named as a salt.

For the first assay, the system named is ATGL-KO iPSCs. Put plainly: High throughput iPSC chemical screening, Oil Red O (ORO) lipid accumulation. On Z-score: test concentration or dose not given here.
Conditions: not given
The assay is classed as cell-based, mouse.
In turn, `Oc1ccc2c3c1O[C@H]1[C@@H](O)CC[C@@]4(O)[C@@H](C2)N(CC2CCC2)CC[C@]314` [Nalbuphine hydrochloride] registered a Z-score of −1.0996.

The same assay, now with this note: glycolytic switch compounds.
As for `CN(C/C=C/c1ccccc1)Cc1cccc2ccccc12` [Naftifine hydrochloride], the “Rank in normalized ORO score from screen” value is reported as 383.

The same assay, now with this note: normalized ORO level vs DMSO-treated cells; compound present during 7 days differentiation, 96-well; negative = decrease in lipid accumulation.
`COc1ccc(OC)c(C(O)CNC(=O)CN)c1` (stereo not shown) [Midodrine hydrochloride] registered a Z-score of −0.5001.
Same read-out and setting: the result for `CC#C[C@]1(O)CC[C@H]2[C@@H]3CCC4=CC(=O)CCC4=C3[C@@H](c3ccc(N(C)C)cc3)C[C@@]21C` [Mifepristone] reads −0.6348; that for `Cc1[nH]c(=O)c(C#N)cc1-c1ccncc1` [Milrinone], −0.2851.
Same read-out and setting: the result for `NC(Cn1ccc(=O)c(O)c1)C(=O)O` (stereo not shown) [Mimosine] reads 0.9075; that for `Cc1cc(-c2ccccc2)nnc1NCCN1CCOCC1` [Minaprine dihydrochloride], 0.429.
Same read-out and setting: the result for `CN(C)c1ccc(O)c2c1C[C@H]1C[C@H]3[C@H](N(C)C)C(O)=C(C(N)=O)C(=O)[C@@]3(O)C(O)=C1C2=O` [Minocycline hydrochloride] reads 5.776; that for `Nc1cc(N2CCCCC2)nc(N)[n+]1[O-]` [Minoxidil], 0.06676; that for `O=C1c2c(O)ccc(O)c2C(=O)c2c(NCCNCCO)ccc(NCCNCCO)c21` [Mitoxantrone dihydrochloride], 45.2169.
The compound `CCc1c(C)[nH]c2c1C(=O)C(CN1CCOCC1)CC2` (stereo not shown) [Molindone hydrochloride] came in with a Z-score of 2.263.
For the compound `CCOC(=O)[N-]c1cn(N2CCOCC2)n[o+]1` [Molsidomine], the Z-score was 1.761.
As for `C[C@@H]1C[C@H]2[C@@H]3CCC4=CC(=O)C=C[C@]4(C)[C@@]3(Cl)[C@@H](O)C[C@]2(C)[C@@]1(OC(=O)c1ccco1)C(=O)CCl` [Mometasone furoate], the Z-score was −0.7613.
Turning to `CC[C@@]1([C@@H]2O[C@@H]([C@H]3O[C@@](O)(CO)[C@H](C)C[C@@H]3C)C[C@@H]2C)CC[C@H]([C@]2(C)CC[C@]3(C[C@H](O)[C@@H](C)[C@@H]([C@@H](C)[C@@H](OC)[C@H](C)C(=O)O)O3)O2)O1` [Monensin sodium salt], the Z-score turned out to be 18.1768.
On the same count and under the same terms, the result for `Oc1ccc(OCc2ccccc2)cc1` [Monobenzone] reads −1.7289.
On the same count and under the same terms, the result for `C[C@H]1C(=O)O[C@@H]2CCN3CC=C(COC(=O)[C@](C)(O)[C@]1(C)O)[C@H]23` [Monocrotaline] reads −1.7819; that for `Cc1ccsc1/C=C/C1=NCCCN1C` [Morantel tartrate], 1.005.
Still for that read-out and setting: the result for `CCOC(=O)Nc1ccc2c(c1)N(C(=O)CCN1CCOCC1)c1ccccc1S2` [Moricizine hydrochloride] reads −0.1525; that for `Cl.N=C(N=C(N)N)N1CCOCC1` [Moroxidine hydrochloride], 0.05075; that for `CO[C@@]1(NC(=O)C(C(=O)O)c2ccc(O)cc2)C(=O)N2C(C(=O)O)=C(CSc3nnnn3C)CO[C@@H]21` (stereo partly shown) [Moxalactam disodium salt], −0.7608.
Compound `CC(=O)Oc1cc(C(C)C)c(OCCN(C)C)cc1C.Cl` [Moxisylyte hydrochoride] showed a Z-score of −0.4722.
Compound `COc1nc(C)nc(Cl)c1N=C1NCCN1` [Moxonidine] had a Z-score of −0.6893.
Same read-out and setting: the result for `COc1c(C)c2c(c(O)c1C/C=C(\C)CCC(=O)O)C(=O)OC2` [Mycophenolic acid] reads 36.1922; that for `c1cncc(C2=NCCC2)c1` [Myosmine], 0.265.
`O=c1c(O)c(-c2cc(O)c(O)c(O)c2)oc2cc(O)cc(O)c12` [Myricetin] showed a Z-score of 27.33.
On the same count and under the same terms, next, `CNc1ncnc2c1ncn2[C@@H]1O[C@H](CO)[C@@H](O)[C@H]1O` [N6-methyladenosine]: −0.5287; `CC(=O)N[C@@H](CC(C)C)C(=O)O` [N-Acetyl-L-leucine]: −1.2512; `COc1ccc2cc(CCC(C)=O)ccc2c1` [Nabumetone]: −0.6754.
`NC(=O)c1ccc[n+]([C@@H]2O[C@H](COP(=O)([O-])OP(=O)(O)OC[C@H]3O[C@@H](n4cnc5c(N)ncnc54)[C@H](O)[C@@H]3O)[C@@H](O)[C@H]2O)c1` [Nadide] had a Z-score of 0.1385.
The same measure, in the same setting: the result for `CC(C)(C)NCC(O)COc1cccc2c1CC(O)C(O)C2` (stereo not shown) [Nadolol] reads −1.7201; that for `CCOc1ccc2ccccc2c1C(=O)N[C@@H]1C(=O)N2[C@@H]1SC(C)(C)[C@@H]2C(=O)O` [Nafcillin sodium salt monohydrate], −0.1498.
On the same count and under the same terms, the result for `CCN(CC)CCOC(=O)C(Cc1cccc2ccccc12)CC1CCCO1` (stereo not shown) [Nafronyl oxalate] reads 0.6546; that for `CN(C/C=C/c1ccccc1)Cc1cccc2ccccc12` [Naftifine hydrochloride], −0.6354.
Compound `COc1ccccc1N1CCN(CC(O)COc2cccc3ccccc23)CC1` (stereo not shown) [Naftopidil dihydrochloride] showed a Z-score of −0.9212.
The same measure, in the same setting: the result for `CCn1cc(C(=O)O)c(=O)c2ccc(C)nc21` [Nalidixic acid sodium salt hydrate] reads −0.4868; that for `C=CCN1CC[C@]23c4c5ccc(O)c4O[C@H]2C(=O)CC[C@@]3(O)[C@H]1C5` [Naloxone hydrochloride], −0.3899.
Still for that read-out and setting: the result for `O=C1CC[C@@]2(O)[C@H]3Cc4ccc(O)c5c4[C@@]2(CCN3CC2CC2)[C@H]1O5` [Naltrexone hydrochloride dihydrate] reads −0.609.
The same measure, in the same setting: next, `C=C1[C@H]2C[C@@]3([C@@H]1O)[C@@H](C[C@@H]2O)[C@]12[C@@H]4C[C@H]3[C@H]1N(CC)C[C@]4(C)CC[C@@H]2O` [Napelline]: −1.869.
Take `c1ccc2c(CC3=NCCN3)cccc2c1` [Naphazoline hydrochloride]: the Z-score is −0.8458.
The same measure, in the same setting: the result for `COc1ccc2cc([C@H](C)C(=O)O)ccc2c1` [Naproxen] reads −0.3678.
For the compound `O=C1C[C@@H](c2ccc(O)cc2)Oc2cc(O)cc(O)c21` [Naringenine], the Z-score is 1.336.
Same read-out and setting: the result for `C[C@@H]1O[C@@H](O[C@H]2[C@H](Oc3cc(O)c4c(c3)O[C@H](c3ccc(O)cc3)CC4=O)O[C@H](CO)[C@@H](O)[C@@H]2O)[C@H](O)[C@H](O)[C@H]1O` [Naringin hydrate] reads 2.68.
`C[C@@H]1C/C=C/C=C/C=C/C=C/[C@H](O[C@@H]2O[C@H](C)[C@@H](O)[C@H](N)[C@@H]2O)C[C@@H]2O[C@](O)(C[C@@H](O)C[C@H]3O[C@@H]3/C=C/C(=O)O1)C[C@H](O)[C@H]2C(=O)O` [Natamycin] gave a Z-score of 0.06039.
Compound `CN1CCOC(c2ccccc2)c2ccccc2C1` (stereo not shown) [Nefopam hydrochloride] displayed a Z-score of −0.0308.
Still for that read-out and setting: next, `NC[C@@H]1O[C@H](O[C@H]2[C@@H](O)[C@H](O[C@@H]3[C@@H](O)[C@H](N)C[C@H](N)[C@H]3O[C@H]3O[C@H](CN)[C@@H](O)[C@H](O)[C@H]3N)O[C@@H]2CO)[C@H](N)[C@@H](O)[C@@H]1O.O=S(=O)(O)O` [Neomycin sulfate]: −0.2127; `CN(C)C(=O)Oc1cccc([N+](C)(C)C)c1` [Neostigmine bromide]: 1.386.

(Values after US9393221B2, “Methods and compounds for reducing intracellular lipid storage” (THE GENERAL HOSPITAL CORPORATION, priority 2011, dated 2016).)
